Source: patent US5834433A, “Compounds and pharmaceutical uses of peptides of bombesin and GRP” (Merrell Pharmaceuticals Inc., priority 1996, dated 1998)
Non-standard residues stand in square brackets, D forms with d. Residues, ends and D or L forms follow the SMILES beside them. *: point of attachment. Palmitoyl = CCCCCCCCCCCCCCCC(=O)*; Lauroyl = CCCCCCCCCCCC(=O)*; Octanoyl = CCCCCCCC(=O)*

Target: T1, bombesin receptor (Mus musculus, UniProt P21729)
T1 construct: The pancreata from one or more mice were pooled, minced, and homogenized; from tissue; host or cells: mouse pancreas (membrane pellet in A1; chopped tissue in A2)
Assay: Competition at the bombesin receptor for iodinated GRP (125I-GRP), mouse pancreas membranes
Set-up: species or system mice
Details: 125I-GRP competition, read-out: Binding KD
Description: The pancreata from one or more mice were pooled, minced, and homogenized in 50 mM HEPES (pH 7.4) containing 120 mM NaCl and 5 mM KC1 at 4° C. and centrifuged at 37,500 ×g for 15 minutes. The pellet was resuspended in 50 mM HEPES (pH 7.4) containing 10 mM EDTA and 300 mM KC1 and incubated for 30 minutes at 4° C. The suspension was centrifuged as above and the pellet was washed two times in 50 mM HEPES (pH 7.4) containing protease inhibitors (10 uM phenylmethylsulfonyl fluoride, 1 uM thiorphan, 40 ug/ml bacitracin, 10 mM iodoacetimide and 4 ug/ml leupeptin), and again centrifuged. The tissue was then resuspended in incubation buffer (1 ml per 4 mg pancreas) and incubated for 15 minutes at room temperature, then 250 ul was added to each assay tube to commence the assay. The assay tubes contained incubation buffer consisting of 50 mM HEPES (pH 7.4), 0.5% BSA, protease inhibitors, 2 mM MnCl2, 1 uM somatostatin, and concentrations of ^125 I-GRP and peptides as needed in a final volume of 500 ul. The assay was allowed to proceed to equilibrium for 90 minutes at room temperature. After this time, the contents of each tube was rapidly filtered over Whatman GF/B filters presoaked in 0.1% polyethyleneimine and the filters were rapidly washed three times with ice-cold 50 mM HEPES (pH 7.4). Filter-bound radioactivity was quantitated in a gamma counter. Competition of iodinated GRP binding by test compounds or standards was expressed as a percentage of ^125 I-GRP binding in the absence of peptide. Affinity and maximal binding were calculated with Ligand (Biosoft, Cambridge, UK).

T1 sequence (P21729 whole entry): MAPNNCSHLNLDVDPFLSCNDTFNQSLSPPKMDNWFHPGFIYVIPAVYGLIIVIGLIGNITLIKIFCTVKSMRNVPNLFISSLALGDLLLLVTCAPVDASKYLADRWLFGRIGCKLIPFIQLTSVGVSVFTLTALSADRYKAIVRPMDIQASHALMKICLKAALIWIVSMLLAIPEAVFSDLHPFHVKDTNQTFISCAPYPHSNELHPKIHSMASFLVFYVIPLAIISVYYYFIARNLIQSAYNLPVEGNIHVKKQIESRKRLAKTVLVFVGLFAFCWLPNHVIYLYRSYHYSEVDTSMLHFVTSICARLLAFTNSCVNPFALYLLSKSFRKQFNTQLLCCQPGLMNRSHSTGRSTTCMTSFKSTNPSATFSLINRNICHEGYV

SMILES | Kd [nM]
CCCCCCCC(=O)N[C@@H](CCC(N)=O)C(=O)N[C@@H](Cc1c[nH]c2ccccc12)C(=O)N[C@@H](C)C(=O)N[C@H](C(=O)N[C@H](C)C(=O)N[C@@H](Cc1c[nH]cn1)C(=O)N[C@@H](CC(C)C)C(N)=O)C(C)C [Example 1, N-(n-Octanoyl)-Gln-Trp-Ala-Val-ala-His-Leu-NH2] (Octanoyl-QWAV[dA]HL-NH2) | 5
CCCCCCCCCCCCCCCC(=O)N[C@@H](CCC(N)=O)C(=O)N[C@@H](Cc1c[nH]c2ccccc12)C(=O)N[C@@H](C)C(=O)N[C@H](C(=O)N[C@H](C)C(=O)N[C@@H](Cc1c[nH]cn1)C(=O)N[C@@H](CC(C)C)C(N)=O)C(C)C [Example 3, N-(Palmitoyl)-Gln-Trp-Ala-Val-ala-His-Leu-NH2] (Palmitoyl-QWAV[dA]HL-NH2) | 350
CC(=O)N[C@@H](CCC(N)=O)C(=O)N[C@@H](Cc1c[nH]c2ccccc12)C(=O)N[C@@H](C)C(=O)N[C@H](C(=O)N[C@H](C)C(=O)N[C@@H](Cc1c[nH]cn1)C(N)=O)C(C)C [Nα-AcetylQ W A V a H #] (Ac-QWAV[dA]H-NH2) | 1500
CCCCCCCCCCCC(=O)N[C@@H](Cc1c[nH]c2ccccc12)C(=O)N[C@@H](C)C(=O)N[C@H](C(=O)N[C@H](C)C(=O)N[C@@H](Cc1c[nH]cn1)C(N)=O)C(C)C [Nα-LaurylW A V a H #] (Lauroyl-WAV[dA]H-NH2) | > 10000
CCCCCCCC(=O)N[C@@H](Cc1c[nH]c2ccccc12)C(=O)N[C@@H](C)C(=O)N[C@H](C(=O)N[C@H](C)C(=O)N[C@@H](Cc1c[nH]cn1)C(N)=O)C(C)C [Nα-OctylW A V a H #] (Octanoyl-WAV[dA]H-NH2) | > 10000
CCCCCCCCCCCCCCCC(=O)N[C@@H](Cc1c[nH]c2ccccc12)C(=O)N[C@@H](C)C(=O)N[C@H](C(=O)N[C@H](C)C(=O)N[C@@H](Cc1c[nH]cn1)C(N)=O)C(C)C [Nα-PalmitylW A V a H #] (Palmitoyl-WAV[dA]H-NH2) | > 10000

More lines, now with the values ahead:

Kd [nM] | SMILES
320 | CCCCCCCCCCCC(=O)N[C@@H](CCC(N)=O)C(=O)N[C@@H](Cc1c[nH]c2ccccc12)C(=O)N[C@@H](C)C(=O)N[C@H](C(=O)N[C@H](C)C(=O)N[C@@H](Cc1c[nH]cn1)C(=O)N[C@@H](CC(C)C)C(N)=O)C(C)C [Example 2, N-(Lauroyl)-Gln-Trp-Ala-Val-ala-His-Leu-NH2] (Lauroyl-QWAV[dA]HL-NH2)
58 | CCCCCCCC(=O)N[C@@H](CCC(N)=O)C(=O)N[C@@H](Cc1c[nH]c2ccccc12)C(=O)N[C@@H](C)C(=O)N[C@H](C(=O)N[C@H](C)C(=O)N[C@@H](Cc1c[nH]cn1)C(N)=O)C(C)C [Example 4, N-(n-Octanoyl)-Gln-Trp-Ala-Val-ala-His-NH2] (Octanoyl-QWAV[dA]H-NH2)
69 | CC(=O)N[C@@H](CCC(N)=O)C(=O)N[C@@H](Cc1c[nH]c2ccccc12)C(=O)N[C@@H](C)C(=O)N[C@H](C(=O)N[C@H](C)C(=O)N[C@@H](Cc1c[nH]cn1)C(=O)N[C@@H](CC(C)C)C(N)=O)C(C)C [Nα-AcetylQ W A V a H L #] (Ac-QWAV[dA]HL-NH2)
> 10000 | CC(=O)N[C@@H](Cc1c[nH]c2ccccc12)C(=O)N[C@@H](C)C(=O)N[C@H](C(=O)N[C@H](C)C(=O)N[C@@H](Cc1c[nH]cn1)C(N)=O)C(C)C [Nα-AcetylW A V a H #] (Ac-WAV[dA]H-NH2)
> 10000 | CCCCCCCCCCCC(=O)N[C@@H](CCC(N)=O)C(=O)N[C@@H](Cc1c[nH]c2ccccc12)C(=O)N[C@@H](C)C(=O)N[C@H](C(=O)N[C@H](C)C(=O)N[C@@H](Cc1c[nH]cn1)C(N)=O)C(C)C [Nα-LaurylQ W A V a H #] (Lauroyl-QWAV[dA]H-NH2)
> 10000 | CCCCCCCCCCCCCCCC(=O)N[C@@H](CCC(N)=O)C(=O)N[C@@H](Cc1c[nH]c2ccccc12)C(=O)N[C@@H](C)C(=O)N[C@H](C(=O)N[C@H](C)C(=O)N[C@@H](Cc1c[nH]cn1)C(N)=O)C(C)C [Nα-PalmitylQ W A V a H #] (Palmitoyl-QWAV[dA]H-NH2)
